# Assay results as given in PubChem BioAssay AID248 (DTP/NCI, 2004).
# Values joined by “and” are separate entries in the source; they are usually repeats but may differ in a detail not shown here. Identical values can stand only once. Inconclusive results and toxic doses are left out.
# Tested on: L1210 leukemia ip in BDF1 mice, survival T/C
# Experiment: NCI In Vivo Anticancer Drug Screen. Data for tumor model L1210 Leukemia (intraperitoneal) in B6D2F1 (BDF1) mice
# Conditions: endpoint: mean survival time, higher = longer survival
# Outline: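 Tumor was transplanted into mice, which were then dosed with test compound or vehicle alone. Survival was recorded for each group, and the treated figure was expressed relative to the control figure.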
# [1] = dose: 100.0 mg/kg/injection, schedule: Q04DX003 (ip), vehicle: saline with Tween-80
# [2] = dose: 200.0 mg/kg/injection, schedule: Q04DX003 (ip), vehicle: saline with Tween-80
# [3] = dose: 400.0 mg/kg/injection, schedule: Q04DX003 (ip), vehicle: saline with Tween-80
# [4] = dose: 100.0 mg/kg/injection, schedule: Q01DX009 (ip), vehicle: saline with Tween-80
# [5] = dose: 100.0 mg/kg/injection, schedule: Q04DX002 (ip), vehicle: saline with Tween-80
# [6] = dose: 200.0 mg/kg/injection, schedule: Q01DX009 (ip), vehicle: saline with Tween-80
# [7] = dose: 200.0 mg/kg/injection, schedule: Q04DX002 (ip), vehicle: saline with Tween-80
# [8] = dose: 50.0 mg/kg/injection, schedule: Q01DX001 (ip), vehicle: carboxymethylcellulose (CMC)
# [9] = dose: 100.0 mg/kg/injection, schedule: Q01DX001 (ip), vehicle: carboxymethylcellulose (CMC)
# [10] = dose: 200.0 mg/kg/injection, schedule: Q01DX001 (ip), vehicle: carboxymethylcellulose (CMC)
# [11] = dose: 400.0 mg/kg/injection, schedule: Q01DX001 (ip), vehicle: carboxymethylcellulose (CMC)
# [12] = dose: 100.0 mg/kg/injection, schedule: Q01DX009 (ip), vehicle: Klucel (hydroxypropylcellulose) (HPC)
# [13] = dose: 50.0 mg/kg/injection, schedule: Q01DX009 (ip), vehicle: saline with Tween-80
# [14] = dose: 25.0 mg/kg/injection, schedule: Q01DX009 (ip), vehicle: Klucel (hydroxypropylcellulose) (HPC)
# [15] = dose: 100.0 mg/kg/injection, schedule: Q01DX001 (ip), vehicle: saline
# [16] = dose: 200.0 mg/kg/injection, schedule: Q01DX001 (ip), vehicle: saline
# [17] = dose: 400.0 mg/kg/injection, schedule: Q01DX001 (ip), vehicle: saline
compound,measurement,setting,value
CCCCNC(=O)NC1CC(OC2CC(O)(C(C)=O)Cc3c(O)c4c(c(O)c32)C(=O)c2c(OC)cccc2C4=O)OC(C)C1O (configuration not stated),T/C,"dose: 1.0 mg/kg/injection, schedule: Q04DX003 (ip), vehicle: water",104 % of control
same,T/C,"dose: 2.0 mg/kg/injection, schedule: Q04DX003 (ip), vehicle: water",97 % of control
same,T/C,"dose: 4.0 mg/kg/injection, schedule: Q04DX003 (ip), vehicle: water",98 % of control
same,T/C,"dose: 8.0 mg/kg/injection, schedule: Q04DX003 (ip), vehicle: water",98 % of control
same,T/C,"dose: 16.0 mg/kg/injection, schedule: Q04DX003 (ip), vehicle: water",94 % of control
same,T/C,"dose: 32.0 mg/kg/injection, schedule: Q04DX003 (ip), vehicle: water",101 % of control
C=CC1CCN(CCn2cc(C)c(=O)[nH]c2=O)CC1,T/C,[1],101 % of control
same,T/C,[2],107 % of control
same,T/C,[3],101 % of control
O=C(C(F)F)C(F)F,T/C,"dose: 50.0 mg/kg/injection, schedule: Q01DX009 (ip), vehicle: saline",91 % of control
same,T/C,"dose: 100.0 mg/kg/injection, schedule: Q01DX009 (ip), vehicle: saline",91 % of control
same,T/C,"dose: 100.0 mg/kg/injection, schedule: Q04DX003 (ip), vehicle: saline",106 % of control
same,T/C,"dose: 200.0 mg/kg/injection, schedule: Q04DX003 (ip), vehicle: saline",104 % of control
CC12CC3(C)CC(Cl)(C1)CC(Cl)(C2)C3,T/C,"dose: 100.0 mg/kg/injection, schedule: Q04DX002 (ip), vehicle: Klucel (hydroxypropylcellulose) (HPC)",90 % of control
same,T/C,"dose: 200.0 mg/kg/injection, schedule: Q04DX002 (ip), vehicle: Klucel (hydroxypropylcellulose) (HPC)",102 % of control
same,T/C,"dose: 400.0 mg/kg/injection, schedule: Q04DX002 (ip), vehicle: Klucel (hydroxypropylcellulose) (HPC)",119 % of control
CCOC(=O)c1ccc(NC(=O)c2ccc(Cl)cc2Cl)cc1,T/C,"dose: 50.0 mg/kg/injection, schedule: Q04DX003 (ip), vehicle: saline with Tween-80",102 % of control
same,T/C,[4],96 % of control and 90 % of control
same,T/C,[5],93 % of control and 113 % of control
same,T/C,[1],98 % of control
same,T/C,[6],97 % of control and 110 % of control
same,T/C,[7],95 % of control and 91 % of control
same,T/C,[2],98 % of control
same,T/C,"dose: 400.0 mg/kg/injection, schedule: Q04DX002 (ip), vehicle: saline with Tween-80",102 % of control and 92 % of control
O=C1c2ccccc2C(=O)N1CCS(=O)(=O)Cl,T/C,"dose: 25.0 mg/kg/injection, schedule: Q01DX001 (ip), vehicle: carboxymethylcellulose (CMC)",104 % of control
same,T/C,"dose: 25.0 mg/kg/injection, schedule: Q01DX009 (ip), vehicle: carboxymethylcellulose (CMC)",92 % of control and 96 % of control
same,T/C,[8],100 % of control
same,T/C,"dose: 50.0 mg/kg/injection, schedule: Q01DX009 (ip), vehicle: carboxymethylcellulose (CMC)",92 % of control and 102 % of control
same,T/C,"dose: 50.0 mg/kg/injection, schedule: Q04DX003 (ip), vehicle: carboxymethylcellulose (CMC)",97 % of control and 98 % of control
same,T/C,[9],92 % of control and 99 % of control
same,T/C,"dose: 100.0 mg/kg/injection, schedule: Q01DX009 (ip), vehicle: carboxymethylcellulose (CMC)",92 % of control and 95 % of control and 89 % of control
same,T/C,"dose: 100.0 mg/kg/injection, schedule: Q04DX002 (ip), vehicle: carboxymethylcellulose (CMC)",93 % of control and 97 % of control
same,T/C,"dose: 100.0 mg/kg/injection, schedule: Q04DX003 (ip), vehicle: carboxymethylcellulose (CMC)",100 % of control and 113 % of control
same,T/C,[10],97 % of control
same,T/C,"dose: 200.0 mg/kg/injection, schedule: Q04DX002 (ip), vehicle: carboxymethylcellulose (CMC)",97 % of control
same,T/C,"dose: 200.0 mg/kg/injection, schedule: Q04DX003 (ip), vehicle: carboxymethylcellulose (CMC)",100 % of control and 102 % of control
same,T/C,[11],92 % of control
same,T/C,"dose: 400.0 mg/kg/injection, schedule: Q01DX009 (ip), vehicle: carboxymethylcellulose (CMC)",86 % of control
same,T/C,"dose: 400.0 mg/kg/injection, schedule: Q04DX002 (ip), vehicle: carboxymethylcellulose (CMC)",97 % of control and 100 % of control
O=C(COCC(=O)N/N=C/c1c(O)ccc2ccccc12)N/N=C/c1c(O)ccc2ccccc12,T/C,[12],98 % of control
same,T/C,"dose: 200.0 mg/kg/injection, schedule: Q01DX009 (ip), vehicle: Klucel (hydroxypropylcellulose) (HPC)",89 % of control
same,T/C,"dose: 400.0 mg/kg/injection, schedule: Q01DX009 (ip), vehicle: Klucel (hydroxypropylcellulose) (HPC)",95 % of control
CCCCS(=O)(=O)c1nc2ccc([N+](=O)[O-])cc2s1,T/C,[5],92 % of control
same,T/C,[7],95 % of control
CSC(=S)NCC(=O)O,T/C,[13],89 % of control
same,T/C,[4],89 % of control
same,T/C,[6],101 % of control
CC(=O)CC(OC(=O)c1cc([N+](=O)[O-])cc([N+](=O)[O-])c1)(C(F)(F)F)C(F)(F)F,T/C,"dose: 6.25 mg/kg/injection, schedule: Q01DX009 (ip), vehicle: Klucel (hydroxypropylcellulose) (HPC)",93 % of control
same,T/C,"dose: 12.5 mg/kg/injection, schedule: Q01DX009 (ip), vehicle: Klucel (hydroxypropylcellulose) (HPC)",88 % of control
same,T/C,[14],88 % of control
NC(N)=NCCCS(=O)(=O)Nc1ccc(Nc2c3ccccc3nc3cc([N+](=O)[O-])ccc23)cc1,T/C,"dose: 3.0 mg/kg/injection, schedule: Q01DX009 (ip), vehicle: water",186 % of control
same,T/C,"dose: 6.0 mg/kg/injection, schedule: Q01DX009 (ip), vehicle: water",160 % of control
same,T/C,"dose: 6.25 mg/kg/injection, schedule: Q04DX002 (ip), vehicle: saline with Tween-80",102 % of control
same,T/C,"dose: 6.25 mg/kg/injection, schedule: Q04DX003 (ip), vehicle: water",186 % of control
same,T/C,"dose: 12.5 mg/kg/injection, schedule: Q04DX002 (ip), vehicle: saline with Tween-80",120 % of control
same,T/C,"dose: 25.0 mg/kg/injection, schedule: Q04DX002 (ip), vehicle: saline with Tween-80",124 % of control
same,T/C,"dose: 50.0 mg/kg/injection, schedule: Q04DX003 (ip), vehicle: water",161 % of control
same,T/C,[5],150 % of control
same,T/C,[7],183 % of control
CCOc1ccc(/C=N/NC(=O)c2ccc(N=NN(C)C)cc2)cc1,T/C,"dose: 75.0 mg/kg/injection, schedule: Q04DX003 (ip), vehicle: Klucel (hydroxypropylcellulose) (HPC)",94 % of control
same,T/C,"dose: 150.0 mg/kg/injection, schedule: Q04DX003 (ip), vehicle: Klucel (hydroxypropylcellulose) (HPC)",90 % of control
same,T/C,"dose: 300.0 mg/kg/injection, schedule: Q04DX003 (ip), vehicle: Klucel (hydroxypropylcellulose) (HPC)",87 % of control
Cc1ccc(SC(=S)Sc2ccc(C)cc2)cc1,T/C,[13],91 % of control
same,T/C,[4],91 % of control
same,T/C,[6],87 % of control
O=C(O)c1ccc(Cl)nc1,T/C,[8],97 % of control
same,T/C,[9],94 % of control
same,T/C,[1],104 % of control
same,T/C,[10],92 % of control
same,T/C,[2],103 % of control
same,T/C,[11],94 % of control
same,T/C,[3],104 % of control
COc1ccc(C(=O)Nc2ccc(Br)cc2)cc1,T/C,[1],97 % of control
same,T/C,[2],95 % of control
same,T/C,[3],105 % of control
CCSC1OC(CO)C(O)C1Nc1ccc([N+](=O)[O-])cc1[N+](=O)[O-] (configuration not stated),T/C,[8],89 % of control
same,T/C,[9],94 % of control
COC(=O)C1OC1c1ccccc1OC (configuration not stated),T/C,[15],105 % of control
same,T/C,[16],102 % of control
same,T/C,[17],109 % of control
O=[N+]([O-])c1ccc(O)c(/C=N/Nc2c3ccccc3nc3ccccc23)c1,T/C,[15],103 % of control
same,T/C,[16],95 % of control
same,T/C,[17],92 % of control
CC(C)=CCN(CC=C(C)C)CCC(C#N)(c1cccc2ccccc12)C(C)C (configuration not stated),T/C,[14],101 % of control
same,T/C,[12],93 % of control
CC(C)N1CNC(=O)C12CCN(CC1COc3ccccc3O1)CC2 (configuration not stated),T/C,[1],104 % of control
same,T/C,[2],106 % of control
Cc1cc(C)c2cc3cccc[n+]3cc2c1,T/C,"dose: 2.0 mg/kg/injection, schedule: Q01DX015 (ip), vehicle: saline",100 % of control
same,T/C,"dose: 4.0 mg/kg/injection, schedule: Q01DX001 (ip), vehicle: carboxymethylcellulose (CMC)",105 % of control
same,T/C,"dose: 4.0 mg/kg/injection, schedule: Q01DX015 (ip), vehicle: saline",107 % of control
same,T/C,"dose: 8.0 mg/kg/injection, schedule: Q01DX001 (ip), vehicle: carboxymethylcellulose (CMC)",107 % of control
same,T/C,"dose: 16.0 mg/kg/injection, schedule: Q01DX001 (ip), vehicle: carboxymethylcellulose (CMC)",107 % of control
